Columns and labels:
Assay type in all cases: biochemical
EXT1/EXT2 = molecular target: T1, EXT1/EXT2 (Homo sapiens, UniProt Q16394+Q93063); experiment: HPLC and MS of glycopeptide product; settings: acceptor GlcNAc-TetraP-BETA; Mn2+; pH 7.5
T1 construct: soluble lumenal regions, FLAG-EXT1/His-EXT2 heterodimer co-expressed in Expi293F
T1 sequence (Q16394 29-746 limits assumed): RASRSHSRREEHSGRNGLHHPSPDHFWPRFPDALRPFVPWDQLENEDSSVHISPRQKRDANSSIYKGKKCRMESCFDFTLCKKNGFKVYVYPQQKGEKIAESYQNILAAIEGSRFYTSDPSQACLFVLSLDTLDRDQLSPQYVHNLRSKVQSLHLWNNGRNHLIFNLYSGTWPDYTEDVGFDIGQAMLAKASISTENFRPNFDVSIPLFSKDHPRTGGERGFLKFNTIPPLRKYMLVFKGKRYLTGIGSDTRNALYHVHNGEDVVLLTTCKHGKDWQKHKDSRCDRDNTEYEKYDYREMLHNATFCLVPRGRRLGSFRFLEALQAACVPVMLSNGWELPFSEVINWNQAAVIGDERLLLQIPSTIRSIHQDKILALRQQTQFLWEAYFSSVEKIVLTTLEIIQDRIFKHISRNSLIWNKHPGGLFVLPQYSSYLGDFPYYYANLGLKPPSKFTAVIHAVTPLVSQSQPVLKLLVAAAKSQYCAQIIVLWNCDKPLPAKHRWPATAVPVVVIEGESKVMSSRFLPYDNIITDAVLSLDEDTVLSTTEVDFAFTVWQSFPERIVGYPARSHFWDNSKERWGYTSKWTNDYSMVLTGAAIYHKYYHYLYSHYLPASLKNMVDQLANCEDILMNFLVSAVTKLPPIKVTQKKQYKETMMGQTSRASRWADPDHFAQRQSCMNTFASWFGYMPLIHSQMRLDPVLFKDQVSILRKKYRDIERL
T1 sequence (Q93063 47-718 limits assumed): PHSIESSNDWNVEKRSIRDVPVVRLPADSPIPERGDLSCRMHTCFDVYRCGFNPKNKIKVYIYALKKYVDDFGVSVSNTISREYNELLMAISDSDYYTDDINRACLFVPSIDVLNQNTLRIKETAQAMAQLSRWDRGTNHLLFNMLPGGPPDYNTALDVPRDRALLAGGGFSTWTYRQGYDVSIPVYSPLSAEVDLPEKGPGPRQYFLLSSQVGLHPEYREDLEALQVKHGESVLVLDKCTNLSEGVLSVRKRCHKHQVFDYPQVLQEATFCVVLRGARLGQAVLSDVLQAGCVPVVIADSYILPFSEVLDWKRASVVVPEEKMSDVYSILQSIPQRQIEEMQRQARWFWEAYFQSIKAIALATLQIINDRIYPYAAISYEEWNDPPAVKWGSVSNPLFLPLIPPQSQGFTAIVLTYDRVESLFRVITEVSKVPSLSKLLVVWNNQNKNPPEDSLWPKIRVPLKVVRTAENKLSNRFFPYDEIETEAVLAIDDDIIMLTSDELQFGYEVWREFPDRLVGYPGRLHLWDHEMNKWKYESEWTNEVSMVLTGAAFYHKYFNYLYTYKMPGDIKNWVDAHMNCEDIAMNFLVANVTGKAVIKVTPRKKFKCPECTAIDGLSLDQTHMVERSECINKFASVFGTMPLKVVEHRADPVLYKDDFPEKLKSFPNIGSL

B3GAT3 = molecular target: T2, B3GAT3 (Homo sapiens, UniProt O94766); experiment: one-pot enzymatic synthesis, HPLC and MS; settings: acceptor Gal-Gal-Xyl-BKN; 25 mM Mn2+; pH 7.5; 30 °C
T2 sequence (O94766 29-335 limits assumed): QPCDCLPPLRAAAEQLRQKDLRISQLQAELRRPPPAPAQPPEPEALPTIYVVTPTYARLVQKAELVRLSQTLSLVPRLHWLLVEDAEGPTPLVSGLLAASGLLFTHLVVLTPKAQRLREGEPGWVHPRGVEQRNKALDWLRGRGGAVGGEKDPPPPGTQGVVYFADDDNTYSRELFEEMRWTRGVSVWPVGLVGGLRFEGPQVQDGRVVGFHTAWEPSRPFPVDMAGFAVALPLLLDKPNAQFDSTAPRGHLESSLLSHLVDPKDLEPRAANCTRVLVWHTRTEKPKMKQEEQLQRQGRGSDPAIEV

MBP-CSGALNACT1 = molecular target: T3, MBP-CSGALNACT1 (Homo sapiens, UniProt Q8TDX6); experiment: UDP-Glo; settings: acceptor TetraP-peptides; 5 mM Mn2+; pH 7.5
T3 sequence (Q8TDX6 36-532 limits assumed): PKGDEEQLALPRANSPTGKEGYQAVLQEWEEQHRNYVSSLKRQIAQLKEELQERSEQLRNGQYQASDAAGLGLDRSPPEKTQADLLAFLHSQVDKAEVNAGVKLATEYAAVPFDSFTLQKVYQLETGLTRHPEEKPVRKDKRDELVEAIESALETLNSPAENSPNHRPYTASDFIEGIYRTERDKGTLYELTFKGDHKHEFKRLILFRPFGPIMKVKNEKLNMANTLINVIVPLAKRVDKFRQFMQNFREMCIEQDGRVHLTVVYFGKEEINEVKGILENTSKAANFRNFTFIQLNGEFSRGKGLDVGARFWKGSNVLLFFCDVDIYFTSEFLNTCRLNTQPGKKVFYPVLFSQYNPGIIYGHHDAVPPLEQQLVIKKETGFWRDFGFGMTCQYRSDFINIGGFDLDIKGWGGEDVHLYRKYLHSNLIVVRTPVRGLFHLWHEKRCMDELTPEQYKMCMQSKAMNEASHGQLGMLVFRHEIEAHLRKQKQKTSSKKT

CHSY3/CHPF = molecular target: T4, CHSY3/CHPF (Homo sapiens, UniProt Q70JA7); experiment: HPLC and MS of glycopeptide product; settings: acceptor TetraP-BETA; 5 mM Mn2+; pH 7.5; 30 °C
T4 construct: soluble lumenal regions, His6 tags, obligate heterodimer co-expressed in Expi293F
T4 sequence (Q70JA7 29-882 limits assumed): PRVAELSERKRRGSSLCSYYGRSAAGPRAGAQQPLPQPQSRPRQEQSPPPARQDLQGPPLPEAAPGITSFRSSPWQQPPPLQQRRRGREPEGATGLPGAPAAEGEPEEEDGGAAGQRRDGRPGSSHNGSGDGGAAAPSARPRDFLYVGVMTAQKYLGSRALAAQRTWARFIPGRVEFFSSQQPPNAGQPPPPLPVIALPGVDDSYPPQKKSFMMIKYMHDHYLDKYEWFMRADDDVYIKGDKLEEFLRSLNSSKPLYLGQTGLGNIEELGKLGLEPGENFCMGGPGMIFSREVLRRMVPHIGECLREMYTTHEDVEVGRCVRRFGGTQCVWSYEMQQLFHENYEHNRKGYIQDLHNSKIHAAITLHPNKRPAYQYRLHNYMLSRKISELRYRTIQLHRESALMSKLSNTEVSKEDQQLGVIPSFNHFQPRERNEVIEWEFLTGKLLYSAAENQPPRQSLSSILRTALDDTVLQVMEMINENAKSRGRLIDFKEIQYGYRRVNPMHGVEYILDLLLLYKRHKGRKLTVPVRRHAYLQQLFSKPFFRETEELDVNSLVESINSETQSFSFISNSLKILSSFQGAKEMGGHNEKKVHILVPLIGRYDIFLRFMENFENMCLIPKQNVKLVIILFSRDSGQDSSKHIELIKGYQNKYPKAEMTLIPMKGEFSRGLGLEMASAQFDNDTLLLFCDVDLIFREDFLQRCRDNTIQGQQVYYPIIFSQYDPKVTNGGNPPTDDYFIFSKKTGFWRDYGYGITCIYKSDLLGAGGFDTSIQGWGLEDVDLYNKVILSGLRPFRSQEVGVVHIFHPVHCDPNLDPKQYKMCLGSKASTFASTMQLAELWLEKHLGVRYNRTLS
T4 sequence (Q8IZ52 35-775 partner): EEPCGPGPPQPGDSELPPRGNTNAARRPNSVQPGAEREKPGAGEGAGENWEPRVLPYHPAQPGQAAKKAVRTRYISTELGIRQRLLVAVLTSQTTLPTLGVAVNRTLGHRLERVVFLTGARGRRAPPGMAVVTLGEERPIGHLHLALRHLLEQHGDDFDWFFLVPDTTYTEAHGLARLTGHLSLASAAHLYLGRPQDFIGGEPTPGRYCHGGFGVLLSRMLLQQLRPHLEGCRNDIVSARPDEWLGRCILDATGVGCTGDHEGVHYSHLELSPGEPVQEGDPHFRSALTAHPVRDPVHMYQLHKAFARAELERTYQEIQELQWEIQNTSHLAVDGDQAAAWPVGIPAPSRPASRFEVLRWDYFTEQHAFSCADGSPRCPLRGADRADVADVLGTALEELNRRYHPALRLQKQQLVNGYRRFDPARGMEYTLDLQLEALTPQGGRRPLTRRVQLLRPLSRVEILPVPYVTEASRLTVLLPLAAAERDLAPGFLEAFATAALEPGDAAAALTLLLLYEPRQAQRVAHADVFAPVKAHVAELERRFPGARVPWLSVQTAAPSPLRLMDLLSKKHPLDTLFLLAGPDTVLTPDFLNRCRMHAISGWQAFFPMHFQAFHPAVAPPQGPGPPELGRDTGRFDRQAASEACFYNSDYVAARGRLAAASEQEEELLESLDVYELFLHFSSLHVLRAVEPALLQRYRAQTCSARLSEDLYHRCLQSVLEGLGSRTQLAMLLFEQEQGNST

SMILES | HPLC and MS of glycopeptide product (EXT1/EXT2) | one-pot enzymatic synthesis, HPLC and MS (B3GAT3) | UDP-Glo (MBP-CSGALNACT1) | HPLC and MS of glycopeptide product (CHSY3/CHPF)
O=C(O)[C@H]1O[C@H](OP(=O)(O)OP(=O)(O)OC[C@H]2O[C@@H](n3ccc(=O)[nH]c3=O)[C@H](O)[C@@H]2O)[C@H](O)[C@@H](O)[C@@H]1O [UDP-GlcA] | both enzymes are able to catalyse the addition of a sixth sugar, forming GlcA-GlcNAc-TetraP-BETA | all four GTs but without FAM20B gave the unphosphorylated linker glycopeptide, GlcA-Gal-Gal-Xyl-BKN (Tetra-BKN) |  | 
CC(=O)N[C@H]1[C@@H](OP(=O)(O)OP(=O)(O)OC[C@H]2O[C@@H](n3ccc(=O)[nH]c3=O)[C@H](O)[C@@H]2O)O[C@H](CO)[C@H](O)[C@@H]1O [UDP-GalNAc] |  |  | A similar behaviour was confirmed for CSGALNACT1 | CHSY3/CHPF was able to transfer GalNAc onto TetraP-BETA
